Row | SMILES | melting point [°C]
1 | NC(=S)NNc1ccc(Cl)cc1 | 200 to 201
2 | Cc1c(F)c(F)cc2c(=O)c(C(=O)O)cn(C3CC3)c12 | 240 to 243
3 | FCc1nnc2n1-c1ccc(Cl)cc1C(c1ccccc1)=NC2 | 153 to 154
4 | COC(=O)c1cccc(OC(=O)C(=O)Oc2cccc(C(=O)OC)c2)c1 | 194 to 195
5 | COc1ccc(C=O)c(O)c1Cl | 114 to 117
6 | N#Cc1ccc(N2C(=O)N(CCO)C3(CCOCC3)C2=O)cc1C(F)(F)F | 196 to 197
7 | O=C1CCC2=C1C(c1cc(Br)cs1)C1=C(CCS1)N2 (stereo unspecified) | 254 to 255
8 | CC(O)C#Cc1cc(C(C)Nc2nc(N)nc(C(C)(C)F)n2)ccc1F (stereo unspecified) | 119 to 122
9 | COC(=O)C(=O)c1cc2cc(C#N)ccc2o1 | 196 to 199
10 | COc1cnc(OC)n2nc(N)nc12 | 185 to 186
11 | Cc1ccc2oc(NC(CN3CCN(Cc4ccc(Cl)c(Cl)c4)CC3)C(C)C)nc2c1 (stereo unspecified) | 155 to 157
12 | Cc1onc(-c2ccc(Cl)o2)c1-c1ccc(F)cc1 | 104 to 105
13 | CCn1cc(C(=O)O)c(=O)c2cc(F)c(N3CCC(NC(=O)OC(C)(C)C)C3)c(C)c21 (stereo unspecified) | 184 to 188
14 | CN(C)c1ccc(NC(=O)CCn2c(-c3ccc(Cl)cc3)nc3cccnc32)cc1 | 216 to 218
15 | CS(=O)(=O)c1ccc(-c2cc(C(=O)CCCO[N+](=O)[O-])nn2-c2ccc(Cl)cc2)cc1 | 131 to 132
16 | CCCCCOc1cc(C(=O)O)cc(N)c1-c1ccccc1 | 134 to 135
17 | COCCn1nc(-c2sc(C(=O)NCc3ccccn3)nc2-c2ccccc2)ccc1=O | 168 to 170
18 | Cc1nc2ccc3c(c2o1)OC(CN1C2CCC1CC(O)(c1ccccc1)C2)CO3 (stereo unspecified) | 203 to 205
19 | O=C(O)CN1CC2(CCCCC2)N(c2ccccc2)CC1=O | 167 to 169
20 | CS(=O)(=O)Nc1cc2c(c(C(=O)O)c1)NCCC2 | 244
21 | COC(=O)Nc1cccc(C)c1COc1cccn2c(C=O)c(C)nc12 | 196 to 198
22 | O=C(NC[C@@H]1CN2C(=O)C[C@H]2O1)c1cc(F)c(F)cc1F (racemic) | 76.5 to 78.1
23 | Cc1ncc([N+](=O)[O-])n1CCN1C(=O)c2ccccc2C1=O | 177
24 | CCOC(=O)C1=C(C(=O)OCC)C(c2cc(OC)c(OC)c(OC)c2)C(C(=O)OCC)=C(C)N1 (stereo unspecified) | 134
25 | COC(=O)N(C(=O)C(=O)c1cn(Cc2ccc(Cl)cc2)c2ccccc12)c1ccc2ncccc2c1 | 178
26 | CC(=O)C1CC=C2C(CCC3=Cc4c(cnn4-c4ccc(F)cc4)CC32C)C1C(C)=O (stereo unspecified) | 157 to 159

Row | SMILES | melting point [°C]
27 | Cc1c(-n2ccnc2)n(CCCCCCCC(=O)O)c2ccccc12 | 101 to 103
28 | CCOC(=O)C(C)O/N=C(\C(=O)Sc1nc2ccccc2s1)c1csc(N)n1 (stereo unspecified) | 113
29 | COc1cc(-n2nc(C(F)(F)F)cc2-c2ccc(S(C)(=O)=O)cc2)ccc1F | 159 to 160
30 | CC(Cl)(Cl)C(=O)NC(=O)C(N)=O | 110
31 | O=C(CCCCC1CCN(Cc2ccccc2)CC1)c1ccc(F)cc1 | 67 to 68
32 | CS(=O)(=O)c1cccc(/C=C/C2=CCN(Cc3ccccc3)CC2)c1 | 150 to 152
33 | CC(=O)Nc1c(C(N)=O)n[nH]c1C(C)C | 162 to 164
34 | N#Cc1ccc2c(OCc3ccccc3)cc(C(=O)O)cc2c1 | 235
35 | C#CCc1c(C)nc2c(OCc3ccncc3C)cccn12 | 156 to 157
36 | O=C(O)c1c(Cl)cc(Cl)c(Cl)c1C(=O)O | 150 to 153
37 | O=C(Nc1ccc(-n2nccn2)c(F)c1)OCc1ccccc1 | 99.5 to 101
38 | COc1nccc(Oc2ccc(NC(=O)c3cc(F)cc(N4CCOCC4)c3)c3ccccc23)n1 | 216 to 217
39 | Cn1c(=O)[nH]c2cc(CN3CCN(C(c4ccccc4)c4ccccc4)CC3)ccc21 | 246
40 | COc1ccc(N2C(=O)C(=O)N(c3ccccc3)C2=O)cc1 | 129 to 131
41 | COCc1c(C(=O)O)ncc2[nH]c3cccc(CN4CCOCC4)c3c12 | 253 to 255
42 | CCN(CC)C(=O)c1ccccc1-c1ccc2ccccc2c1 | 52 to 53
43 | NS(=O)(=O)c1cc(C(=O)O)cc([N+](=O)[O-])c1Oc1ccc(Cl)cc1 | 248
44 | CCOC(=O)c1c(S(C)(=O)=O)c(N=O)c2ccccn12 | 143 to 144
45 | C=C(C)Cn1c(=O)n(C)c(=O)c2c(SCCCO)n(Cc3cccc4ccccc34)nc21 | 138 to 139
46 | CC1(C)OC(c2ccc(S(C)(=O)=O)cc2)=C(c2cccc([N+](=O)[O-])c2)C1=O | 158 to 159
47 | O=C(Nc1ccccc1N1CCc2ccccc21)c1ccco1 | 99 to 102
48 | Cc1ccc(Cc2cnc(NCCSCc3cccc(CN(C)C)c3)[nH]c2=O)cn1 | 122 to 125
49 | NS(=O)(=O)Cc1ccc2oc([N+](=O)[O-])c(-c3ccccc3)c2c1 | 203 to 205
50 | CN(Cc1cc2c3c(c1)c(=O)c(C(=O)NCc1ccc(Cl)cc1)cn3CC(=O)N2C)C[C@@H](O)c1nccs1 | 125 to 130
51 | CC(C)n1nc2ccc(Cl)c([N+](=O)[O-])c2n1 | 67 to 70

— a melting point compilation (Tetko et al.; mined from patent text by program, amines drawn as free bases though some values may be those of a salt)
